Molecular target: AAC(3)-IV; AAC(3) (Escherichia coli, UniProt Q306W4)
Test: UV-vis acetyltransferase assay, Michaelis-Menten
Format: biochemical
Details: co-substrate apramycin

CC(=O)SCCNC(=O)CCNC(=O)[C@H](O)C(C)(C)COP(=O)(O)OP(=O)(O)OC[C@H]1O[C@@H](n2cnc3c(N)ncnc32)[C@H](O)[C@@H]1OP(=O)(O)O [AcCoA]
KM: Michaelis-Menten plot for modification of apramycin by AcCoA and AzAcCoA
